The source of these data is ChEMBL document CHEMBL4190406, “Discovery of Potent, Selective, and Peripherally Restricted Pan-Trk Kinase Inhibitors for the Treatment of Pain” (J Med Chem, 2018).

Series [1] can be described thus: Oral bioavailability in rat. Conditions: in vivo. The format is ADME, organism-based.
The nature of series [2]: in vitro. Conditions: dog, MDCK.
A short description of series [3]: Clearance in iv dosed rat administered as 4 hrs infusion. The class given is ADME, organism-based. As to conditions: in vivo.
Series [4] in a line: in vitro. Conditions: human, liver microsomes. Background: Microsomes from liver hold many membrane-bound enzymes, among them those of drug oxidation.
Series [5] is described as follows: in vitro. As to conditions: human, hepatocytes.
A short description of series [6]: Drug metabolism in human hepatocytes assessed as CYP450-mediated metabolite formation at 1 uM up to 240 mins by LC-MS/MS analysis. The format is ADME, cell-based. Conditions: 4 h.
A short description of series [7]: Ratio of unbound brain to plasma concentration in iv dosed rat administered as 4 hrs infusion by equilibrium dialysis method. As to conditions: brain and plasma, read-out: K(p,uu,brain). The class given is ADME, organism-based.
The next series is described as follows: physchem. As to conditions: buffer, pH 7.4.

Where only a bound is given, the exact number is not on record here.

What is called bioavailability is the share of a dose that reaches the circulation, judged against a reference dose that is usually intravenous. A lower bioavailability goes with little systemic uptake. As usually defined, the Papp A→B is how fast a substance crosses the layer from the apical side. Usually clearance stands for the volume of plasma or blood freed of the substance per unit of time. Lower therefore signals inefficient removal. A word on the microsomal CLint: it is a measure of how fast metabolising enzymes remove a compound, apart from limits set by blood flow. The term hepatocyte CLint denotes the rate of metabolic loss divided by the concentration. The low end stands for greater metabolic stability, the high end for faster metabolism. What is called logD is the decadic logarithm of the distribution of all forms, ionised or not, between an organic phase and buffer at a given pH. Read a low logD as a more hydrophilic compound. `Cn1cnc(-c2ccc(OC3CCN(C(=O)Cc4ccc(OC(F)(F)F)cc4)CC3)c(C(N)=O)c2)c1` yielded a bioavailability in series [1] of 45%. This compound also returned a Papp A→B in “in vitro [2]” of 10 ×10⁻⁶ cm/s. Moreover, in series [3], the clearance came to 38 mL/min/kg. In “in vitro [4]”, this compound registered a microsomal CLint at 1 h, 1 µM of less than 8 µL/min/mg. Moreover, the hepatocyte CLint at 4 h, 1 µM in “in vitro [5]” was 8 µL/min/1e6 cells. The Drug metabolism entry in series [6] is “Metabolite_Detected”. Also, the Kp uu at 4 h in series [7] amounted to 0.0065. In addition, the logD in “physchem” is 2.9.
